What was measured:
rat H1 receptor = target: T1, rat H1 receptor (Rattus norvegicus, UniProt P31390); assay: Rat H1 receptor affinity test (Test Example 1); format: binding; details: rat cerebrum membrane preparation, [3H]-pyrilamine 2 nmol/L
T1 construct: An H1 receptor membrane preparation was prepared from rat cerebrum; from tissue; host or cells: rat cerebrum
Method: An H1 receptor membrane preparation was prepared from rat cerebrum. […] To the resulting each sample, 50 μL of 8 nmol/L [^3H]-pyrilamine (manufactured by PerkinElmer) (final concentration: 2 nmol/L) was added and mixed. After the mixture was incubated at a room temperature for 30 minutes, the reaction solution was collected on a glass filter by a cell harvester (manufactured by Molecular Devices), and then the filter was washed with the incubation buffer. The glass filter was cut off and transferred in a vial. To the vial was added 5 mL of a scintillator (manufactured by National Diagnostics), and the mixture was shaken for not less than one hour. Thereafter, the radioactive concentration was measured by a liquid scintillation counter.

human H1 receptor = target: T2, human H1 receptor (Homo sapiens, UniProt P35367); assay: Human H1 receptor affinity test (Test Example 2); format: binding; details: CHO cell membrane preparation expressing human H1 receptor, [3H]-pyrilamine 2 nmol/L
T2 construct: purchased; host or cells: CHO cells
T2 sequence (P35367 whole entry): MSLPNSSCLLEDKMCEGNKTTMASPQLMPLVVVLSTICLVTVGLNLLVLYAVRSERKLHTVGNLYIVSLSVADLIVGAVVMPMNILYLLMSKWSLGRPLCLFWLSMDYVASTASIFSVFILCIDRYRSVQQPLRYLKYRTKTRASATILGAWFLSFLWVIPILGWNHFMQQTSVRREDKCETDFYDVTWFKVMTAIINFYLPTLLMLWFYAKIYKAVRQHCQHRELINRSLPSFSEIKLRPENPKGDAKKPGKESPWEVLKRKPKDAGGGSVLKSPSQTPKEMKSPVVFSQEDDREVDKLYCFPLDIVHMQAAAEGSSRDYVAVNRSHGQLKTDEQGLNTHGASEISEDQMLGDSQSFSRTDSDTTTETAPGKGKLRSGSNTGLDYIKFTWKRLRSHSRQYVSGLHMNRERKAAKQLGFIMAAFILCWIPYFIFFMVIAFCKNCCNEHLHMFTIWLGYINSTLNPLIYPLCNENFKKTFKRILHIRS
Method: Chinese hamster ovarian cells (CHO cells) having human H1 receptor forcibly express were purchased and used as an H1 receptor membrane preparation. […] To the resulting each sample, 50 μL of 8 nmol/L [^3H]-pyrilamine (final concentration: 2 nmol/L) was added and mixed. […] The glass filter was cut off and transferred in a vial. To the vial was added 5 mL of a scintillator (manufactured by National Diagnostics), and the mixture was shaken for not less than one hour. Thereafter, the radioactive concentration was measured by a liquid scintillation counter.

[1] = test system: histamine-induced skin reaction in rat; assay: Histamine-induced skin reaction test in rat (Test Example 3); format: in vivo; details: oral, histamine 10 μg/0.1 mL/site intradermal, pigment area, read-out: Skin reaction test in rat ID50
Method: […] One hour after the administration, a 1% Evans Blue physiological saline solution (Tokyo Chemical Industry Co., Ltd.) was administered into the caudal vein in a dose of 5 mL/kg, and immediately histamine 10 μg/0.1 mL/site (manufactured by Wako Pure Chemical Industries, Ltd.) was intradermally administered into the dorsum. Thirty minutes after the administration, the rat was anesthetized with diethyl ether and then euthanized by cervical dislocation. The skin was ablated, and the major axis and minor axis of a spot of the pigment exuded into the skin were measured to calculate the area of the pigment.

[2] = test system: histamine-induced skin reaction in mouse; assay: Skin reaction test in mouse (Test Example 4); format: in vivo; details: oral, histamine 3 μg/50 μL/site intradermal, pigment area, read-out: Skin reaction test in mouse ID50
Method: Each mouse was sheared the day before test and fasted overnight. A low, middle or high dose of each test compound suspended in a 0.5% (W/V) CMC-Na aqueous solution was orally administered to the mouse. One hour after the administration, a 1% Evans Blue physiological saline solution (Tokyo Chemical Industry Co., Ltd.) was administered into the caudal vein in a dose of 10 mL/kg, and immediately histamine 3 μg/50 μL/site was intradermally administered into the dorsum. Thirty minutes after the administration, the mouse was anesthetized with diethyl ether and then euthanized by cervical dislocation. The skin was ablated, and the major axis and minor axis of a spot of the pigment exuded into the skin were measured to calculate the area of the pigment.

[3] = test system: mouse IgE-dependent ear edema model; assay: Inhibitory effects on mouse IgE-dependent ear edema model (Test Example 8); format: in vivo; details: oral twice a day, dose a multiple of mouse ID50 (Dose column of Table E);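 further: 5 or 10 times the mouse skin-reaction ID50 per dose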
Method: To each mouse, 0.25 mL of an anti-DNP-IgE antibody (manufactured by SIGMA-ALDRICH) was intravenously administered for passive sensitization. On the day following the administration, an antigen (DNFB solution; manufactured by Wako Pure Chemical Industries, Ltd.) was applied on the right ear to induce dermatitis (ear swelling). One hour, 24 hours and 7 days after the application of the antigen, the thickness of the right ear was measured by a thickness measuring apparatus (dial thickness gauge). […] The thickness of the right ear before the sensitization was measured beforehand; the inhibition rates of the swelling in immediate phase, late phase, and very late phase were calculated.

T1 sequence (P31390 whole entry): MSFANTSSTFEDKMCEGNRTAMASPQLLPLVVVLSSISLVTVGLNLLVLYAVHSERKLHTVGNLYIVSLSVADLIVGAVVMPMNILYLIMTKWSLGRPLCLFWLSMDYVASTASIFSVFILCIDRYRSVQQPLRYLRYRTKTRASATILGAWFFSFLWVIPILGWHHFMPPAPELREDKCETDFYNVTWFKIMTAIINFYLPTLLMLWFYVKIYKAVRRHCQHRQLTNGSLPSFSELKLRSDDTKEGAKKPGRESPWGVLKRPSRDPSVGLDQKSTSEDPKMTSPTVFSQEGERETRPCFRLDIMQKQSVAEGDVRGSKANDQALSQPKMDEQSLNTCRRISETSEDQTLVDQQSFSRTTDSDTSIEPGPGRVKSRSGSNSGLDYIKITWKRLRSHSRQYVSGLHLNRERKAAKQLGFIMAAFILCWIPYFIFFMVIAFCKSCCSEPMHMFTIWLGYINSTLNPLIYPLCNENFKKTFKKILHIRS

IC50 (rat H1 receptor) | IC50 (human H1 receptor) | SMILES | other results
83 nM | – | O=C(O)c1cccc(CN2CCC(OC(c3ccccc3)c3cccc(C(F)(F)F)c3)CC2)n1 (stereo not drawn) [Example 26] | –
89 nM | – | O=C(O)c1cccc(CN2CCC(OC(c3ccccc3)c3ccc(F)cc3)CC2)n1 (stereo not drawn) [Example 18] | ED50 [1]: 0.2 mg/kg
– | 6.1 nM | O=C(O)c1cccc(CN2CC[C@@H](OC(c3ccccc3)c3ccccc3)C2)n1 [Example 128, 6-((R)-3-Benzhydryloxypyrrolidin-1-ylmethyl)pyridine-2-carboxylic acid] | –
– | 17 nM | O=C(O)c1cccc(CN2CCC(OC(c3ccccc3)c3cccc(Cl)c3)CC2)n1 (stereo not drawn) [Example 116] | –
– | 15 nM | O=C(O)c1ccnc(CN2CC[C@H](OC(c3ccccc3)c3ccccc3)C2)c1 [Example 131, 2-((S)-3-Benzhydryloxypyrrolidin-1-ylmethyl)isonicotinic acid] | –
63 nM | – | O=C(O)c1cc(CN2CCC(OC(c3ccccc3)c3ccccc3)CC2)ccn1 [Example 29] | –
24 nM | 19 nM | O=C(O)c1ccnc(CN2CCC(OC(c3ccccc3)c3ccc(Cl)cc3)CC2)c1 (stereo not drawn) [Example 42] | ED50 [1]: 1.8 mg/kg
61 nM | 15 nM | O=C(O)c1ccc(CN2CCC(OC(c3ccccc3)c3ccccc3)CC2)[nH]1 [Example 35, 5-(4-Benzhydryloxypiperidin-1-ylmethyl)-1H-pyrrole-2-carboxylic acid] | –
8.2 nM | 9.2 nM | O=C(O)c1cccc(CN2CCC(OC(c3ccccc3)c3ccccc3)C2)n1 (stereo not drawn) [Example 24] | –
– | 4.9 nM | O=C(O)c1ccnc(CN2CCC(OC(c3ccccc3)c3ccc(F)c(F)c3)CC2)c1 (stereo not drawn) [Example 51] | ED50 [2]: 0.07 mg/kg
20 nM | – | O=C(O)c1nc(CN2CCC(OC(c3ccccc3)c3ccc(Cl)cc3)CC2)cs1 (stereo not drawn) [Example 44] | –
99 nM | – | O=C(O)c1nc(CN2CCC(OC(c3ccccc3)c3ccccc3)CC2)cs1 [Example 36] | –
18 nM | 12 nM | O=C(O)c1ccc(CN2CCC(OC(c3ccccc3)c3ccc(Cl)cc3)CC2)o1 (stereo not drawn) [Example 43] | –
39 nM | – | O=C(O)c1csc(CN2CCC(OC(c3ccccc3)c3ccccc3)CC2)n1 [Example 4] | –
– | 17 nM | O=C(O)c1cnn(CN2CCC(OC(c3ccccc3)c3ccccc3)CC2)c1 [Example 84] | –
110 nM | – | COc1ccc(C(OC2CCN(Cc3cccc(C(=O)O)n3)CC2)c2ccccc2)cc1 (stereo not drawn) [Example 17] | –
38 nM | 11 nM | O=C(O)c1cc(F)cc(CN2CCC(OC(c3ccccc3)c3ccccc3)CC2)c1 [Example 6] | ED50 [1]: 0.6 mg/kg
81 nM | 14 nM | O=C(O)c1ccc(CN2CCC(OC(c3ccccc3)c3ccccc3)CC2)o1 [Example 1, 5-(4-Benzhydryloxypiperidin-1-ylmethyl)furan-2-carboxylic acid] | –
55 nM | – | O=C(O)c1coc(CN2CCC(OC(c3ccccc3)c3ccccc3)CC2)n1 [Example 3] | –
69 nM | 29 nM | O=C(O)c1cccc(CN2CCC(OC(c3ccccc3)c3ccccc3F)CC2)n1 (stereo not drawn) [Example 20] | –
68 nM | – | Cc1ccc(C(OC2CCN(Cc3ccc(C(=O)O)o3)CC2)c2ccccc2)cc1 (stereo not drawn) [Example 46] | –
12 nM | 22 nM | O=C(O)c1cccc(CN2CCC(OC(c3ccccc3)c3cccc(F)c3)CC2)n1 (stereo not drawn) [Example 25] | –
19 nM | 18 nM | Cc1ccc(C(OC2CCN(Cc3cc(C(=O)O)ccn3)CC2)c2ccccc2)cc1 (stereo not drawn) [Example 41] | –
42 nM | 15 nM | O=C(O)c1cncc(CN2CCC(OC(c3ccccc3)c3ccccc3)CC2)c1 [Example 30] | –
– | 24 nM | O=C(O)c1ccnc(CN2CCC(OC(c3ccccc3)c3cccc(Cl)c3)CC2)c1 (stereo not drawn) [Example 117] | –
– | 7.5 nM | O=C(O)c1cc(CN2CCC(OC(c3ccccc3)c3ccc(F)cc3)CC2)cs1 (stereo not drawn) [Example 89] | –
1.2 nM | 26 nM | O=C(O)c1ccnc(CN2CCC(OC(c3ccccc3)c3cccc(F)c3)CC2)c1 (stereo not drawn) [Example 40] | –

The remaining lines, values behind:

SMILES | IC50 (rat H1 receptor) | IC50 (human H1 receptor) | other results
O=C(O)c1cccc(CN2CCC(OC(c3ccc(F)cc3)c3cccc(F)c3)CC2)n1 (stereo not drawn) [Example 49] | 89 nM | 17 nM | ED50 [1]: 1.5 mg/kg
O=C(O)c1cccc(CN2CCC(=C3c4ccccc4COc4ccccc43)CC2)n1 [Example 80] | – | 17 nM | –
O=C(O)c1cccc(CN2CCN(C(c3ccccc3)c3ccc(Cl)cc3)CC2)n1 (stereo not drawn) [Example 23] | 36 nM | 30 nM | ED50 [1]: 1.8 mg/kg
O=C(O)c1cccc(CN2CCC(=C3c4ccc(Cl)cc4CCc4cccnc43)CC2)n1 [Example 68] | 40 nM | – | –
O=C(O)c1ccnc(CN2CCC(=C3c4ccccc4C=Cc4ccccc43)CC2)c1 [Example 72] | – | 8.9 nM | ED50 [2]: 0.06 mg/kg
O=C(O)c1cccc(CN2CCC(OC(c3ccc(F)cc3)c3ccccc3F)CC2)n1 (stereo not drawn) [Example 86] | – | 16 nM | –
O=C(O)c1ccnc(CN2CCC(OC(c3ccc(F)cc3)c3ccccc3F)CC2)c1 (stereo not drawn) [Example 87] | – | 21 nM | ED50 [2]: 0.06 mg/kg; Inhibitory effects in each allergic reaction phase: Immediate phase ([3]; mouse ear swelling 1 hour after antigen): ++ (++ Inhibitory rate 45 to 20%); Inhibitory effects in each allergic reaction phase: Late phase ([3]; mouse ear swelling 24 hours after antigen): ++ (++ Inhibitory rate 45 to 20%); Inhibitory effects in each allergic reaction phase: Very late phase ([3]; mouse ear swelling 7 days after antigen): + (+ Inhibitory rate 19 to 10%)
O=C(O)c1ccnc(CN2CCC(OC(c3ccc(F)cc3)c3cccc(F)c3)CC2)c1 (stereo not drawn) [Example 52] | – | 6.7 nM | ED50 [2]: 0.1 mg/kg
O=C(O)c1cccc(CN2CC[C@H](OC(c3ccc(F)cc3)c3ccc(F)cc3)C2)n1 [Example 155] | – | 10 nM | –
O=C(O)c1cccc(CN2CCN(C(c3ccccc3)c3ccc(F)cc3)CC2)n1 (stereo not drawn) [Example 143] | – | 24 nM | –
O=C(O)c1ccc(CN2CCC(OC(c3ccccc3)c3ccc(F)cc3)CC2)cn1 (stereo not drawn) [Example 85] | – | 22 nM | –
O=C(O)c1cccc(CN2CCC(=C3c4ccccc4CCc4ccccc43)CC2)n1 [Example 75] | 67 nM | 23 nM | ED50 [1]: 1.2 mg/kg
O=C(O)c1ccnc(CN2CCC(OC(c3ccc(F)cc3)c3ccc(F)cc3)CC2)c1 [Example 124] | – | 8.4 nM | –
O=C(O)c1cncc(CN2CCC(OC(c3ccccc3)c3ccc(F)cc3)CC2)c1 (stereo not drawn) [Example 88] | – | 21 nM | –
COc1ccc(CN2CCC(OC(c3ccccc3)c3ccc(F)c(F)c3)CC2)nc1C(=O)O (stereo not drawn) [Example 53] | – | 14 nM | –
O=C(O)COCCN1CCN(C(c2ccccc2)c2ccc(Cl)cc2)CC1 (stereo not drawn) [Cetirizine] | 88 nM | – | –
O=C(O)c1ccnc(CN2CC[C@H](OC(c3ccc(F)cc3)c3ccc(F)cc3)C2)c1 [Example 154] | – | 13 nM | –
O=C(O)c1cccc(CN2CCC(=C3c4ccccc4CCc4ccccc43)CC2)c1 [Example 74] | – | – | ED50 [1]: 2.1 mg/kg
